Data as given in patent publication US9657018B2, “Antagonists acting at multiple prostaglandin receptors for the treatment of inflammation” (Allergan, Inc., priority 2014, dated 2017).
Structures can show the parent of a compound that is named as a salt.

Tests used:
[1] = target: T1, human prostanoid DP1 receptor (Homo sapiens, UniProt Q13258); assay: FLIPR Ca2+ signaling antagonist assay, DP1 receptor stable cell line; assay type: cell-based; design: key to FLIPR data DP1 (Kb): PAg = partial agonist; Ag = agonist; NA = not active; conditions: human recombinant DP1 + chimeric Gqs in HEK-293 EBNA cells; standard agonist BW 245C; NA = no antagonism or Kb>=10,000 nM
T1 construct: expressed in transfected cells
T1 sequence (Q13258 1-359): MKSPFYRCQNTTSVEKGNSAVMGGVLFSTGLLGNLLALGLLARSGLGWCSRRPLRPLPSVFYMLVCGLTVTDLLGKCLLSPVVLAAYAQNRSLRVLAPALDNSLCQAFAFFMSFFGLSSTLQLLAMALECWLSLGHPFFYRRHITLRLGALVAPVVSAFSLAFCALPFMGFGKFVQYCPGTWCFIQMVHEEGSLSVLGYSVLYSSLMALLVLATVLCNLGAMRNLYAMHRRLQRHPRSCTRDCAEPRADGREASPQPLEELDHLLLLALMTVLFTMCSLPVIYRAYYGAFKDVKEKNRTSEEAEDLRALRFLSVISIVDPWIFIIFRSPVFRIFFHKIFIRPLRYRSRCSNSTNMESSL
Description: (§1) The above compounds were tested for PG antagonist activity as follows using human recombinant prostanoid receptor (DP1, EP1-4, FP, IP and TP) stable cell lines:
(§2) In order to measure the response of Gs and Gi coupled prostanoid receptors as a Ca^2+ signal, chimeric G protein cDNAs were used. Stable cell lines over-expressing human prostanoid DP1, EP1-4, FP, IP, and TP receptors were established as follows:
(§3) Briefly, human prostanoid DP1, EP2, and EP4 receptor cDNAs were co-transfected with chimeric Gqs cDNA containing a haemagglutanin (HA) epitope; human prostanoid EP3 receptors were co-transfected with chimeric Gqi-HA; human EP1, FP, IP, and TP receptor cDNAs were expressed with no exogenous G-proteins. Gqs and Gqi chimeric cDNAs (Molecular Devices, Sunnyvale, Calif., U.S.A.), as well as cDNAs of prostanoid receptors, were cloned into a pCEP4 vector with a hygromycin B selection marker. Transfection into HEK-293 EBNA (Epstein-Barr virus nuclear antigen) cells was achieved by the FuGENE 6 transfection Reagent (Roche Applied Science, Indianapolis, Ind., USA). Stable transfectants were selected according to hygromycin resistance. Because Gqs and Gqi contained an HA epitope, G-protein expression was detected by Western blotting analysis using anti-mouse HA monoclonal antibody and horseradish peroxidase (HRP)-conjugated secondary antibody, while functional expression of prostanoid receptors was detected by FLIPR screening (Matias et al., 2004). These stable cell lines were validated using previously published antagonists at 10 μM against serial dilutions of standard agonists by FLIPR functional assays for Ca^2+ Signaling (as described below).
(§4) Ca^2+ signaling studies were performed using a FLIPR TETRA system (Molecular Devices, Sunnyvale, Calif., USA) in the 384-format. This is a high-throughput instrument for cell-based assays to monitor Ca^2+ signaling associated with GPCRs and ion channels. Cells were seeded at a density of 5×10^4 cells/well in BioCoat poly-D-lysine coated, black wall, clear bottom 384-well plates (BD Biosciences, Franklin lakes, NJ, USA) and allowed to attach overnight in an incubator at 37° C. The cells were then washed twice with HBSS-HEPES buffer (Hanks' balanced salt solution without bicarbonate and phenol red, 20 mM HEPES, pH 7.4) using an ELx405 Select CW Microplate Washer (BioTek, Winooski, Vt., USA). After 60 min of dye-loading in the dark using the Ca^2+-sensitive dye Fluo-4AM (Invitrogen, Carlsbad, Calif., USA), at a final concentration of 2×10^−6M, the plates were washed 4 times with HBSS-HEPES buffer to remove excess dye and leaving 50 μl of buffer in each well. The plates were then placed in the FLIPR TETRA instrument and allowed to equilibrate at 37° C. AGN-211377 was added in a 25 μl volume to each well to give final concentrations of 0.1 μl. M, 0.4M, 1 μM, 3 μl. M, 10 μl. M, and 30 μl. M; or 0.067 μM, 0.4M, 0.67 μM, and 1 μM for cells over-expressing TP receptors. After 4.5 minutes, a 7-point serial dilution of the standard agonist for the corresponding receptor, in a 25 μl volume was injected at the final concentrations from 10^−11M to 10^−5M in 10-fold serial dilution increments for cells expressing human recombinant DP1, EP1, EP2, EP3, EP4, FP, and IP receptors. The dose range for the standard agonist for human recombinant TP receptors was from 10^−12M to 10^−6M. HBSS-HEPES buffer was used as the negative control for the standard agonists. Cells were excited with LED (light emitting diode) excitation at 470-495 nm and emission was measured through an emission filter at 515-575 nm. Assay plates were read for 3.5 minutes using the FLIPR^TETRA. The peak increase in fluorescence intensity was recorded for each well. On each plate, negative controls, dose response of positive controls, and co-treatments of antagonist-agonist for each dose were in triplicates. Standard agonists were as follows: DP=BW 245C, EP1-EP4=PGE2, FP=17-phenyl-PGF2a, IP=Cicaprost, and TP=U-46619. […]

[2] = target: T2, human prostanoid EP3 receptor (Homo sapiens, UniProt P43115); assay: FLIPR Ca2+ signaling antagonist assay, EP3 receptor stable cell line; assay type: cell-based; conditions: human recombinant EP3 + chimeric Gqi in HEK-293 EBNA cells; standard agonist PGE2; NA = no antagonism or Kb>=10,000 nM
T2 construct: expressed in transfected cells
T2 sequence (P43115 1-390): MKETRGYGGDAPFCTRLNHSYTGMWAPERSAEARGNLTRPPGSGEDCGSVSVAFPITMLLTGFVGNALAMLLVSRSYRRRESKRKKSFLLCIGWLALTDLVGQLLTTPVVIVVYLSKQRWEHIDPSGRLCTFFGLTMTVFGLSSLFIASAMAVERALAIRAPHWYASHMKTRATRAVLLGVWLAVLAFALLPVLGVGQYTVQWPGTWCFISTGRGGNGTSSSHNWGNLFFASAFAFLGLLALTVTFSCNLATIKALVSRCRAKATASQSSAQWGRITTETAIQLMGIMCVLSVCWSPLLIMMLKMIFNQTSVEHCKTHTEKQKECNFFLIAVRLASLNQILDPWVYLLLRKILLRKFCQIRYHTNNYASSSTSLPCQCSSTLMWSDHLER
Description: as §1, §2, §3, §4

Row | Kb [1] | Kb [2] | FLIPR data DP1 (Kb) [1] | Structure (SMILES)
1 | 0.46 µM | > 10 µM | – | CC(C)Cn1ncc2cc(Cl)cc(Cn3ncc4cc(C(=O)O)ccc43)c21 [Compound 41, 1-(5-Chloro-1-isobutyl-1H-indazol-7-ylmethyl)-1H-indazole-5-carboxylic acid]
2 | 0.59 µM | > 10 µM | – | CC(C)Cn1ncc2cc(Br)cc(Cn3ncc4cc(C(=O)O)ccc43)c21 [Compound 42, 1-(5-Bromo-1-isobutyl-1H-indazol-7-ylmethyl)-1H-indazole-5-carboxylic acid]
3 | 1.7 µM | > 10 µM | – | CC(C)Cn1ncc2cc(F)cc(Cn3ncc4cc(C(=O)O)ccc43)c21 [Compound 43, 1-(5-Fluoro-1-isobutyl-1H-indazol-7-ylmethyl)-1H-indazole-5-carboxylic acid]
4 | 1 µM | > 10 µM | – | CC(C)Cn1ncc2cc(C(F)(F)F)cc(Cn3ncc4cc(C(=O)O)ccc43)c21 [Compound 44, 1-(1-Isobutyl-5-trifluoromethyl-1H-indazol-7-ylmethyl)-1H-indazole-5-carboxylic acid]
5 | 0.3 µM | > 10 µM | – | CC(C)Cn1ncc2cc(OC(F)(F)F)cc(Cn3ncc4cc(C(=O)O)ccc43)c21 [Compound 45, 1-(1-Isobutyl-5-trifluoromethoxy-1H-indazol-7-ylmethyl)-1H-indazole-5-carboxylic acid]
6 | > 10 µM | > 10 µM | – | CC(C)n1ncc2cc(Br)cc(Cn3ncc4cc(C(=O)O)ccc43)c21 [Compound 46, 1-(5-Bromo-1-isopropyl-1H-indazol-7-ylmethyl)-1H-indazole-5-carboxylic acid]
7 | 1.4 µM | > 10 µM | – | CCC(CC)Cn1ncc2cc(Br)cc(Cn3ncc4cc(C(=O)O)ccc43)c21 [Compound 47, 1-[5-Bromo-1-(2-ethyl-butyl)-1H-indazol-7-ylmethyl]-1H-indazole-5-carboxylic acid]
8 | 5.5 µM | > 10 µM | – | CCCn1ncc2cc(Cl)cc(Cn3ncc4cc(C(=O)O)ccc43)c21 [Compound 48]
9 | 3.5 µM | > 10 µM | – | CC(C)Cn1ncc2cc(Cl)cc(Cn3ncc4cc(C(=O)O)cnc43)c21 [Compound 49, 1-(5-Chloro-1-isobutyl-1H-indazol-7-ylmethyl)-1H-pyrazolo[3,4-b]pyridine-5-carboxylic acid]
10 | > 10 µM | > 10 µM | – | CC(C)Cn1ncc2cc(Cl)cc(Cn3cnc4cc(C(=O)O)ccc43)c21 [Compound 50, 1-(5-Chloro-1-isobutyl-1H-indazol-7-ylmethyl)-1H-benzoimidazole-5-carboxylic acid]
11 | > 10 µM | > 10 µM | – | CC(C)Cn1ncc2cc(Cl)cc(Cn3cnc4cc(C(=O)O)cnc43)c21 [Compound 51, 3-(5-Chloro-1-isobutyl-1H-indazol-7-ylmethyl)-3H-imidazo[4,5-b]pyridine-6-carboxylic acid]
12 | – | 3.4 µM | Ag | CC(C)Cn1ncc2cc(Cl)cc(Cn3ccc4cc(C(=O)O)cnc43)c21 [Compound 52, 1-(5-Chloro-1-isobutyl-1H-indazol-7-ylmethyl)-1H-pyrrolo[2,3-b]pyridine-5-carboxylic acid]
13 | 0.64 µM | > 10 µM | – | Cc1nn(Cc2cc(Br)cc3cnn(CC(C)C)c23)c2ccc(C(=O)O)cc12 [Compound 53, 1-(5-Bromo-1-isobutyl-1H-indazol-7-ylmethyl)-3-methyl-1H-indazole-5-carboxylic acid]
14 | 0.2 µM | > 10 µM | – | Cc1nn(Cc2cc(Br)cc3cnn(CC(C)C)c23)c2ncc(C(=O)O)cc12 [Compound 54, 1-(5-Bromo-1-isobutyl-1H-indazol-7-ylmethyl)-3-methyl-1H-pyrazolo[3,4-b]pyridine-5-carboxylic HCl salt]
15 | > 10 µM | > 10 µM | – | CC(C)Cn1ncc2cc(C(F)(F)F)cc(Cn3cnc4cc(C(=O)O)ccc43)c21 [Compound 55, 1-(1-Isobutyl-5-trifluoromethyl-1H-indazol-7-ylmethyl)-1H-benzoimidazole-5-carboxylic acid]
16 | 5.2 µM | > 10 µM | – | CC(C)Cn1ncc2cc(OC(F)(F)F)cc(Cn3cnc4cc(C(=O)O)ccc43)c21 [Compound 56, 1-(1-Isobutyl-5-trifluoromethoxy-1H-indazol-7-ylmethyl)-1H-benzoimidazole-5-carboxylic acid]
17 | 4.7 µM | > 10 µM | – | CC(C)Cn1ncc2cc(Cl)cc(Cc3ncc4cc(C(=O)O)ccn34)c21 [Compound 61, 3-[(5-Chloro-1-isobutyl-indazol-7-yl)methyl]imidazo[1,5-a]pyridine-7-carboxylic acid]
18 | 3.7 µM | > 10 µM | – | CC(C)Cn1ncc2cc(Cl)cc(Cn3nc(N)c4cc(C(=O)O)ccc43)c21 [Compound 68, 3-Amino-1-[(5-chloro-1-isobutyl-indazol-7-yl)methyl]indazole-5-carboxylic acid]
19 | 1 µM | 8.1 µM | – | CNc1nn(Cc2cc(Cl)cc3cnn(CC(C)C)c23)c2ccc(C(=O)O)cc12 [Compound 70, 1-[(5-Chloro-1-isobutyl-indazol-7-yl)methyl]-3-(methylamino)indazole-5-carboxylic acid]
